# Results published in patent US20120232070A1, “Use of Indole Derivatives as Nurr-1 Activators for the Application Thereof as a Medicament for the Treatment of Parkinson's Disease” (Laboratoires Fournier SA, priority 2009, published 2012).
# How the values were obtained:
# [1] = target: hNurr1_RXRγFL (NURR1/RXRγ heterodimer) (Homo sapiens, UniProt P43354+P48443); experiment: Transactivation assay in Cos-7 cells, NURR-1-Gal4 / RXRγ, luciferase reporter; assay type: cell-based; conditions: for Emax: COS-7, read-out: hNurr1_RXRγFL Eff (%), efficacy in % relative to the reference XCT0135908 at 2·10^−5 M (=100%); for EC50: Cos-7 cells, overnight incubation
# hNurr1_RXRγFL (NURR1/RXRγ heterodimer), sequence (P43354 328-598): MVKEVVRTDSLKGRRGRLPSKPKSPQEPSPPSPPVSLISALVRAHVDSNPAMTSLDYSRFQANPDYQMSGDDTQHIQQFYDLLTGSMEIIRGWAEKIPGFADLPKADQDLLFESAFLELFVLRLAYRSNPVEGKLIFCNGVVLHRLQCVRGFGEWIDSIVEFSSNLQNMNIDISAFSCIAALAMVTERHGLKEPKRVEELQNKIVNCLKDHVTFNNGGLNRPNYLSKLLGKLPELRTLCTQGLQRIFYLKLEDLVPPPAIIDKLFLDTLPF
# hNurr1_RXRγFL (NURR1/RXRγ heterodimer), sequence (P48443 whole entry, the tested form may be a part): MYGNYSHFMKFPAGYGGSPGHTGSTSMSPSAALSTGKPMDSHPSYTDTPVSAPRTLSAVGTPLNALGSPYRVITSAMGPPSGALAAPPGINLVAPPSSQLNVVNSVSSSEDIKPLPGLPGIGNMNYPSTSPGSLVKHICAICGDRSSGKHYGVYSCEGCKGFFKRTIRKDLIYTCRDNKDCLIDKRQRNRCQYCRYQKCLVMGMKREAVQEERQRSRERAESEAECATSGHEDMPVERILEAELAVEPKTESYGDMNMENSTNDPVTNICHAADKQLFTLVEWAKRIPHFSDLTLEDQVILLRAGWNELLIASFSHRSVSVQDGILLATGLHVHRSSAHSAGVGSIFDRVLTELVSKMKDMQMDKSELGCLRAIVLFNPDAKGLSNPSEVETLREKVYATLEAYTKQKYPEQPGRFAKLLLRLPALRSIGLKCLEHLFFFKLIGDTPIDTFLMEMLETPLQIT
# Method in brief: (§1)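 Cos-7 cells co-transfected with human NURR-1-Gal4 chimera, human RXRα or RXRγ, and 5Gal4pGL3-TK-Luc reporter; compounds added at 10^−4 to 3·10^−10 M final, overnight incubation, luciferase read. Induction over each heterodimer's baseline expressed as % of reference RXR agonist XCT0135908 (2·10^−5 M) taken as 100%.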
# [2] = target: hNurr1_RXRαFL (NURR1/RXRα heterodimer) (Homo sapiens, UniProt P19793+P43354); experiment: Transactivation assay in Cos-7 cells, NURR-1-Gal4 / RXRα, luciferase reporter; assay type: cell-based; conditions: for Emax: COS-7, read-out: hNurr1_RXRαFL Eff (%), efficacy in % relative to the reference XCT0135908 at 2·10^−5 M (=100%); for EC50: Cos-7 cells, overnight incubation
# hNurr1_RXRαFL (NURR1/RXRα heterodimer), sequence (P19793 whole entry, the tested form may be a part): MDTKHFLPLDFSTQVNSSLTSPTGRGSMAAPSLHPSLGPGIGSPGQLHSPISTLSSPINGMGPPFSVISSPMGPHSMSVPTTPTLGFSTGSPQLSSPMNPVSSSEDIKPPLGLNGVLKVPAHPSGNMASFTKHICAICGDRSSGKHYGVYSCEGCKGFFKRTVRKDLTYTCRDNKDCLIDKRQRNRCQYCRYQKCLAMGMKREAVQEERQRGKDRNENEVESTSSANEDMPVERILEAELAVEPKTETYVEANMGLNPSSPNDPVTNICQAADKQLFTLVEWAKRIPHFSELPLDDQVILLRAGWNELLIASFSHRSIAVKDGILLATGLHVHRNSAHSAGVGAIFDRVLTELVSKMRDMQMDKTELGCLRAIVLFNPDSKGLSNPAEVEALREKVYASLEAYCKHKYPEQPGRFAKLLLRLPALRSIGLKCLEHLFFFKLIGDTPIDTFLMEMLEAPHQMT
# hNurr1_RXRαFL (NURR1/RXRα heterodimer), sequence (P43354 328-598): as the sequence (P43354 328-598) above
# Method in brief: as §1
Structure (SMILES),Emax [1] [%],EC50 [1] [nM],Emax [2] [%],EC50 [2] [nM]
"COC(=O)c1ccc(Cc2cc3cc(Cl)ccc3n2S(=O)(=O)c2ccc(C(C)C)cc2)cc1 [Example 40, 4-[[5-chloro-1-[[4-(1-methylethyl)phenyl]sulfonyl]-1H-indol-2-yl]methyl]benzoic acid, methyl ester]",75,2110,96,560
"O=C(O)c1ccc(Cc2cc3cc(Cl)ccc3n2S(=O)(=O)c2ccc3ccccc3c2)cc1 [Example 163, 4-[[5-chloro-1-(2-naphthalenylsulfonyl)-1H-indol-2-yl]methyl]benzoic acid]",34,933,53,427
"O=C(O)c1ccc(Cc2cc3cc(Cl)ccc3n2S(=O)(=O)c2ccc(Oc3ccccc3)nc2)cc1 [Example 175, 4-[[5-chloro-1-[(6-phenoxy-3-pyridinyl)sulfonyl]-1H-indol-2-yl]methyl]benzoic acid]",14,> 10000,38,331
"CCC(C)(C)c1ccc(S(=O)(=O)n2c(Cc3ccc(C(=O)O)cc3)cc3cc(C(F)(F)F)ccc32)cc1 [Example 12, 4-[[1-[[4-(1,1-dimethylpropyl)phenyl]sulfonyl]-5-(trifluoromethyl)-1H-indol-2-yl]methyl]benzoic acid]",45,148,54,113
"O=C(O)c1ccc(Cc2cc3cc(C(F)(F)F)ccc3n2S(=O)(=O)c2ccc(Cl)c(OC(F)F)c2)cc1 [Example 147, 4-[[1-[4-chloro-3-difluoromethoxy-phenylsulfonyl]-5-(trifluoromethyl)-1H-indol-2-yl]methyl]benzoic acid]",30,1100,49,825
"O=C(O)c1ccc(Cc2cc3cc(Cl)ccc3n2S(=O)(=O)c2ccc(-c3ccc(F)cc3)cc2)cc1 [Example 179, 4-[[1-[4′-fluoro-biphenyl-4-sulfonyl]-5-(chloro)-1H-indol-2-yl]methyl]benzoic acid]",26,> 10000,62,331
"O=C(O)c1cncc(Cc2cc3cc(Cl)ccc3n2S(=O)(=O)c2ccc3c(c2)OCCO3)c1 [Example 213, 3-[[1-[(2,3-dihydro-benzo[1,4]dioxin-6-yl)sulfonyl]-5-chloro-1H-indol-2-yl]methyl]-5-pyridine carboxylic acid]",31,> 10000,45,3000
CC(C)(C)c1cccc(S(=O)(=O)n2c(Cc3ccc(C(=O)O)cn3)cc3cc(C(F)(F)F)ccc32)c1 [Example 66],79,110,80,71
"CN1CCOc2ccc(S(=O)(=O)n3c(Cc4ccc(C(=O)O)cc4)cc4cc(C(F)(F)F)ccc43)cc21 [Example 45, 4-[[1-[(3,4-dihydro-4-methyl-2H-1,4-benzoxazin-6-yl)sulfonyl]-5-(trifluoromethyl)-1H-indol-2-yl]methyl]benzoic acid]",50,201,70,97
"Cc1ccc(S(=O)(=O)n2c(Cc3ccc(C(=O)O)cc3)cc3cc(Cl)ccc32)cc1 [Example 171, 4-[[5-chloro-1-[(4-methylphenyl)sulfonyl]-1H-indol-2-yl]methyl]benzoic acid]",31,944,40,510
"CCCCCc1ccc(S(=O)(=O)n2c(Cc3ccc(C(=O)O)cc3)cc3cc(Cl)ccc32)cc1 [Example 170, 4-[[1-[4-pentyl-phenylsulfonyl]-5-(chloro)-1H-indol-2-yl]methyl]benzoic acid]",26,> 10000,42,1740
"O=C(O)c1ccc(Cc2cc3cc(Cl)ccc3n2S(=O)(=O)c2ccc3c(c2)OCCO3)cc1 [Example 157, 4-[[1-[2,3-dihydro-benzo[1,4]dioxin-6-sulfonyl]-5-(chloro)-1H-indol-2-yl]methyl]benzoic acid]",64,838,67,267
"CC(C)(C)c1cccc(S(=O)(=O)n2c(Cc3ccc(-c4noc(=O)[nH]4)cc3)cc3cc(C(F)(F)F)ccc32)c1 [Example 222, 3-[[4-[1-[[3-(1,1-dimethylethyl)phenyl]sulfonyl]-5-(trifluoromethyl)-1H-indol-2-yl]methyl]-phenyl]-4H-[1,2,4]oxadiazol-5-one]",55,676,62,367
"O=C(O)c1ccc(F)c(Cc2cc3cc(C(F)(F)F)ccc3n2S(=O)(=O)c2ccc3c(c2)OCCO3)c1 [Example 214, 3-[[1-[(2,3-dihydro-benzo[1,4]dioxin-6-yl)sulfonyl]-5-trifluoromethyl-1H-indol-2-yl]methyl]-4-fluorobenzoic acid]",55,804,75,681
Cc1ccc(S(=O)(=O)n2c(Cc3ccc(C(=O)O)cc3)cc3cc(C(F)(F)F)ccc32)cc1 [Example 134],36,552,50,212
"COC(=O)c1ccc(Cc2cc3cc(C(F)(F)F)ccc3n2S(=O)(=O)c2cccc(C(C)(C)C)c2)s1 [Example 190, 5-[[1-[[3-(1,1-dimethylethyl)-phenyl]sulfonyl]-5-trifluoromethyl-1H-indol-2-yl]-methyl]-thiophene-2-carboxylic acid, methyl ester]",107,13,97,0.2
"Cn1ccc(-c2cccc(S(=O)(=O)n3c(Cc4ccc(C(=O)O)cc4)cc4cc(C(F)(F)F)ccc43)c2)n1 [Example 18, 4-[[1-[[3-(1-methyl-1H-pyrazol-3-yl)phenyl]sulfonyl]-5-(trifluoromethyl)-1H-indol-2-yl]methyl]benzoic acid]",34,668,60,407
"CC(C)(C)c1ccc(S(=O)(=O)n2c(Cc3ccc(C(=O)O)cc3)cc3cc(C(F)(F)F)ccc32)cc1 [Example 21, 4-[[1-[[4-(1,1-dimethylethyl)phenyl]sulfonyl]-5-(trifluoromethyl)-1H-indol-2-yl]methyl]benzoic acid]",35,240,46,121
CC(C)(C)c1cccc(S(=O)(=O)n2c(Cc3ccc(C=C4SC(=S)NC4=O)cc3)cc3cc(C(F)(F)F)ccc32)c1 [Example 223],30,3390,72,1320
"O=C(O)c1ccc(Cc2cc3cc(Cl)ccc3n2S(=O)(=O)c2ccc(F)c(Cl)c2)cc1 [Example 150, 4-[[1-[3-chloro-4-fluoro-phenylsulfonyl]-5-(chloro)-1H-indol-2-yl]methyl]benzoic acid]",96,501,103,299
"CN1CCOc2ccc(S(=O)(=O)n3c(Cc4ccc(C(=O)O)c(Cl)c4)cc4cc(C(F)(F)F)ccc43)cc21 [Example 211, 4-[[1-[[4-methyl-3,4-dihydro-2H-benzo[1,4]oxazin-6-yl]-sulfonyl]-5-trifluoromethyl-1H-indol-2-yl]methyl]-2-chlorobenzoic acid]",56,465,83,385
"CC(C)(C)c1cccc(S(=O)(=O)n2c(Cc3ccc(C(=O)O)c(Cl)c3)cc3cc(C(F)(F)F)ccc32)c1 [Example 206, 4-[[1-[[3-(1,1-dimethylethyl)-phenyl]sulfonyl]-5-trifluoromethyl-1H-indol-2-yl]methyl]-2-chlorobenzoic acid]",85,363,71,174
"COC(=O)c1cc(Cc2cc3cc(C(F)(F)F)ccc3n2S(=O)(=O)c2cccc(C(C)(C)C)c2)cn1C [Example 192, 4-{[1-[[3-(1,1-dimethylethyl)-phenyl]sulfonyl]-5-trifluoromethyl-1H-indol-2-yl]-methyl}-1-methyl-1H-pyrrol-2-yl-carboxylic acid, methyl ester]",58,> 10000,85,1120
"CC(C)(C)c1cccc(S(=O)(=O)n2c(Cc3ccc(-c4n[nH]c(=O)o4)cc3)cc3cc(C(F)(F)F)ccc32)c1 [Example 226, 5-[4-[[1-[[3-(1,1-dimethylethyl)phenyl]sulfonyl]-5-(trifluoromethyl)-1H-indol-2-yl]methyl]-phenyl]-3H-[1,3,4]oxadiazol-2-one]",70,> 10000,82,465
"COc1ccc(S(=O)(=O)n2c(Cc3ccc(C(=O)O)cc3)cc3cc(Cl)ccc32)cn1 [Example 169, 4-[[5-chloro-1-[(6-methoxy-3-pyridinyl)sulfonyl]-1H-indol-2-yl]methyl]benzoic acid]",28,2490,46,1010
"O=C(O)c1ccc(Cc2cc3cc(Cl)ccc3n2S(=O)(=O)c2ccc3c(c2)OCCO3)s1 [Example 77, 5-[[5-chloro-1-[(2,3-dihydro-benzo[1,4]dioxin-6-yl)sulfonyl]-1H-indol-2-yl]methyl]-thiophene-2-carboxylic acid]",38,457,74,224
